System: SPDEF
Experiment: Western blot of SPDEF in IL-13-treated SAEC monolayer
Type: cell-based, human
Conditions: airway epithelial monolayer, IL-13 24 and 48 h, immunoblotting
Protocol: FIGS. 6A-6B. AR inhibition prevents IL-13-induced expression of Mucin and transcription factor SPDEF in airway epithelial cell monolayer. (A) The airway epithelial cell monolayer at ALI was serum starved without or with fidarestat and incubated with IL-13 for 18 h. Total RNA was isolated and subsequently RT-PCR was performed to assess the expression of Muc5AC and SPDEF. The bar diagrams show densitometric analysis of the corresponding blots (n=4). *p<0.001 vs Control; **p<0.001 vs IL-13; (B) The monolayer of ciliated airway cells at ALI was treated with AR inhibitor for 24 h and subsequently incubated with IL-13 for 24 or 48 h. At the end of incubation, cell lysate was prepared and subjected to western blotting using antibodies against Muc5AC, Muc5B, and SPDEF. The membranes were stripped and re-probed with antibodies against GAPDH to show the equal loading of protein. A representative blot is shown (n=4). *p<0.0001 vs Control; **p<0.001 vs IL-13. […] Protein levels were determined using Bradford reagent (Biorad, Hercules, Calif.). […] The blots were then washed, exposed to HRP-conjugated secondary antibodies (1:5,000 dilution) for 1 h, and the antigen-antibody complex was detected by enhanced chemiluminescence (Amersham Pharmacia Biotech, Piscataway, N.J., USA). […]

SMILES: NC(=O)[C@@H]1C[C@]2(NC(=O)NC2=O)c2cc(F)ccc2O1 [fidarestat, (2S,4S)-2-aminoformyl-6-fluoro-spiro[chroman-4,4′-imidazolidine]-2′,5′-dione]
- prevention of IL-13-induced increase in SPDEF protein: ~50%

— patent US8785483B2, “Methods for treating COPD” (The Board of Regents of the University of Texas System, priority 2010, dated 2014)
